Experiments:
Test in all cases: Eurofins kinase panel
Format in all cases: biochemical
Conditions in all cases: read-out: Inhibition rate (%)
Met(h) = biological target: T1, Met(h) (Homo sapiens, UniProt P08581)
T1 construct: purchased Eurofins (KinaseProfiler)

NEK1(h) = biological target: T2, NEK1(h) (Homo sapiens, UniProt Q96PY6)
T2 construct: purchased Eurofins (KinaseProfiler)
T2 sequence (Q96PY6 1-1258): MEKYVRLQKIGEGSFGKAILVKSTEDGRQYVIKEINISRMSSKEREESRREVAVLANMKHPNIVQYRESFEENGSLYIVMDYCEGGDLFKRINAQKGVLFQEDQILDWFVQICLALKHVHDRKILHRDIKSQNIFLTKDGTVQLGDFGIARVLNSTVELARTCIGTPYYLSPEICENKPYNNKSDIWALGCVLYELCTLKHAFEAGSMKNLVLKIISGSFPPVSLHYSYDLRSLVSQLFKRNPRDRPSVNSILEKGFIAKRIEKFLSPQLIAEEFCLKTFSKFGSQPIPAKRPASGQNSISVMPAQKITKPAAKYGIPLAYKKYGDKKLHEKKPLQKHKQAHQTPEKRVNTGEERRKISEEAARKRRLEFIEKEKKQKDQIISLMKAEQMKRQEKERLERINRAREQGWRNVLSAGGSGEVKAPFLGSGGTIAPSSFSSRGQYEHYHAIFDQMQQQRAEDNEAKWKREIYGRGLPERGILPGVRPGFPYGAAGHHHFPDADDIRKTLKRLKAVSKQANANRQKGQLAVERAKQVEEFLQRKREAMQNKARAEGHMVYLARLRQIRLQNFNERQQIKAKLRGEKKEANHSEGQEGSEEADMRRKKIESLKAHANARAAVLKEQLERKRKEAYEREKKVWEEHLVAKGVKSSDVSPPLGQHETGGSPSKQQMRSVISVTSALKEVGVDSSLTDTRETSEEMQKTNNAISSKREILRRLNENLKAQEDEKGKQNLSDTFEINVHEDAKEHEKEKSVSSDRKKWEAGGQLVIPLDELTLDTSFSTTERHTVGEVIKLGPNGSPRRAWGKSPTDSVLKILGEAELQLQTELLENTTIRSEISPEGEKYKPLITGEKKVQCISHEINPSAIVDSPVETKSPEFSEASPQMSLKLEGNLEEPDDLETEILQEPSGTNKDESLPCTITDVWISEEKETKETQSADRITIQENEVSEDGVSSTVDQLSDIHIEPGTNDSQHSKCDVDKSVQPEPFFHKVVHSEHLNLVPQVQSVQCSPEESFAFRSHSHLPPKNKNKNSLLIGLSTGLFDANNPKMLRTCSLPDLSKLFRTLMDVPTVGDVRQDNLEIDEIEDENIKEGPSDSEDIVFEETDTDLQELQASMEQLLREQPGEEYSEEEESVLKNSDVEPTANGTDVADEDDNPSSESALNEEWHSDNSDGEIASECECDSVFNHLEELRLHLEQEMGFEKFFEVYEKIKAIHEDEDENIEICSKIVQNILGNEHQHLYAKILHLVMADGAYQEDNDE

TAF1L(h) = biological target: T3, TAF1L(h) (Homo sapiens, UniProt Q8IZX4)
T3 construct: purchased Eurofins (KinaseProfiler)

p70S6K(h) = biological target: T4, p70S6K(h) (Homo sapiens, UniProt P23443)
T4 construct: purchased Eurofins (KinaseProfiler)
T4 sequence (P23443 whole entry): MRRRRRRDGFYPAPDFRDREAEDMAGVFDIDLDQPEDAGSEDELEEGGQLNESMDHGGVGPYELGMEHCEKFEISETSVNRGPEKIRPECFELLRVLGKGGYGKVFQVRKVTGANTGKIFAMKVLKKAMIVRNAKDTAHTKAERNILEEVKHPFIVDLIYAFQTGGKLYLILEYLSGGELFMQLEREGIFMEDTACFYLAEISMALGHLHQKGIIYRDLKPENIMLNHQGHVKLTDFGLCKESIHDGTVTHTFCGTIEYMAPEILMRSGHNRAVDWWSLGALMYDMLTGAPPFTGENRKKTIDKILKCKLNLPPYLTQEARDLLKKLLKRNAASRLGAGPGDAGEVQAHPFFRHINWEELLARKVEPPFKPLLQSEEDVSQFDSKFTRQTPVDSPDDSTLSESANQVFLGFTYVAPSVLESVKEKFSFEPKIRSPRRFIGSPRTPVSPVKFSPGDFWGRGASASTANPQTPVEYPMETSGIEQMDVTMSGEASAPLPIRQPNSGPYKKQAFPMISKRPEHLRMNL

T1 sequence (P08581 25-1390): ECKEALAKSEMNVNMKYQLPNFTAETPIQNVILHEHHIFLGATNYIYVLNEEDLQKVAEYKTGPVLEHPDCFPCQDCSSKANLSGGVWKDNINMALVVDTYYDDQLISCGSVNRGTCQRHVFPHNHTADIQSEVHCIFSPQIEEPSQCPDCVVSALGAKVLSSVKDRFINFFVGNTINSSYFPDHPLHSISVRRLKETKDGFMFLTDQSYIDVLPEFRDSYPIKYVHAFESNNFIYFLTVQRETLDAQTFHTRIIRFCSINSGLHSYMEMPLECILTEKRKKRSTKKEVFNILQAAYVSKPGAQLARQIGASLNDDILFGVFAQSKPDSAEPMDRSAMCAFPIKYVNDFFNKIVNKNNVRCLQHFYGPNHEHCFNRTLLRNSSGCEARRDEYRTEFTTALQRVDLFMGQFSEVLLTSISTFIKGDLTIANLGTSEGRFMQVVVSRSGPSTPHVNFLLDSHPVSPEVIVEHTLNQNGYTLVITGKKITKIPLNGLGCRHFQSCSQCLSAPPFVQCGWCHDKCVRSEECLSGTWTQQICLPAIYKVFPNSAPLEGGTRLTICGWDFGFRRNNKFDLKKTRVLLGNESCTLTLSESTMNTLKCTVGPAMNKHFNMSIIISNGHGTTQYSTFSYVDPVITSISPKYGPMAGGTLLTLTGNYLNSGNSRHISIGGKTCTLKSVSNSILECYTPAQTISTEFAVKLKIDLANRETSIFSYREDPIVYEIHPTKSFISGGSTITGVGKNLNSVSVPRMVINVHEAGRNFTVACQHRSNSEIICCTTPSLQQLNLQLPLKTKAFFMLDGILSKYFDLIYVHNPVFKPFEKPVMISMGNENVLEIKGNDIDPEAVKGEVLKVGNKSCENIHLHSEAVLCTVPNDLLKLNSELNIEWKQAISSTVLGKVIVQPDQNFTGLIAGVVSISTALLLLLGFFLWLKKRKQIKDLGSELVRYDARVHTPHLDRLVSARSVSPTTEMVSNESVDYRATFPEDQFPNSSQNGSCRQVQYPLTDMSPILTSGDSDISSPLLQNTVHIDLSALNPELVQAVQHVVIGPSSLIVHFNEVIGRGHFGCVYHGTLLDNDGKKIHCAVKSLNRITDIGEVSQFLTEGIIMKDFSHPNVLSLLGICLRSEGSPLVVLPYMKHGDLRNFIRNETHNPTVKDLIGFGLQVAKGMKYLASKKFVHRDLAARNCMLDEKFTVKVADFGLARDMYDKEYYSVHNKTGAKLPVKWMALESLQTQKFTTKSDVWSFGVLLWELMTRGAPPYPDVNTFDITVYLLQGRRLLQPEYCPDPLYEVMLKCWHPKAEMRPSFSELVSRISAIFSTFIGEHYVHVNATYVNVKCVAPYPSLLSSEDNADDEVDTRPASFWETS
T3 sequence (Q8IZX4 whole entry): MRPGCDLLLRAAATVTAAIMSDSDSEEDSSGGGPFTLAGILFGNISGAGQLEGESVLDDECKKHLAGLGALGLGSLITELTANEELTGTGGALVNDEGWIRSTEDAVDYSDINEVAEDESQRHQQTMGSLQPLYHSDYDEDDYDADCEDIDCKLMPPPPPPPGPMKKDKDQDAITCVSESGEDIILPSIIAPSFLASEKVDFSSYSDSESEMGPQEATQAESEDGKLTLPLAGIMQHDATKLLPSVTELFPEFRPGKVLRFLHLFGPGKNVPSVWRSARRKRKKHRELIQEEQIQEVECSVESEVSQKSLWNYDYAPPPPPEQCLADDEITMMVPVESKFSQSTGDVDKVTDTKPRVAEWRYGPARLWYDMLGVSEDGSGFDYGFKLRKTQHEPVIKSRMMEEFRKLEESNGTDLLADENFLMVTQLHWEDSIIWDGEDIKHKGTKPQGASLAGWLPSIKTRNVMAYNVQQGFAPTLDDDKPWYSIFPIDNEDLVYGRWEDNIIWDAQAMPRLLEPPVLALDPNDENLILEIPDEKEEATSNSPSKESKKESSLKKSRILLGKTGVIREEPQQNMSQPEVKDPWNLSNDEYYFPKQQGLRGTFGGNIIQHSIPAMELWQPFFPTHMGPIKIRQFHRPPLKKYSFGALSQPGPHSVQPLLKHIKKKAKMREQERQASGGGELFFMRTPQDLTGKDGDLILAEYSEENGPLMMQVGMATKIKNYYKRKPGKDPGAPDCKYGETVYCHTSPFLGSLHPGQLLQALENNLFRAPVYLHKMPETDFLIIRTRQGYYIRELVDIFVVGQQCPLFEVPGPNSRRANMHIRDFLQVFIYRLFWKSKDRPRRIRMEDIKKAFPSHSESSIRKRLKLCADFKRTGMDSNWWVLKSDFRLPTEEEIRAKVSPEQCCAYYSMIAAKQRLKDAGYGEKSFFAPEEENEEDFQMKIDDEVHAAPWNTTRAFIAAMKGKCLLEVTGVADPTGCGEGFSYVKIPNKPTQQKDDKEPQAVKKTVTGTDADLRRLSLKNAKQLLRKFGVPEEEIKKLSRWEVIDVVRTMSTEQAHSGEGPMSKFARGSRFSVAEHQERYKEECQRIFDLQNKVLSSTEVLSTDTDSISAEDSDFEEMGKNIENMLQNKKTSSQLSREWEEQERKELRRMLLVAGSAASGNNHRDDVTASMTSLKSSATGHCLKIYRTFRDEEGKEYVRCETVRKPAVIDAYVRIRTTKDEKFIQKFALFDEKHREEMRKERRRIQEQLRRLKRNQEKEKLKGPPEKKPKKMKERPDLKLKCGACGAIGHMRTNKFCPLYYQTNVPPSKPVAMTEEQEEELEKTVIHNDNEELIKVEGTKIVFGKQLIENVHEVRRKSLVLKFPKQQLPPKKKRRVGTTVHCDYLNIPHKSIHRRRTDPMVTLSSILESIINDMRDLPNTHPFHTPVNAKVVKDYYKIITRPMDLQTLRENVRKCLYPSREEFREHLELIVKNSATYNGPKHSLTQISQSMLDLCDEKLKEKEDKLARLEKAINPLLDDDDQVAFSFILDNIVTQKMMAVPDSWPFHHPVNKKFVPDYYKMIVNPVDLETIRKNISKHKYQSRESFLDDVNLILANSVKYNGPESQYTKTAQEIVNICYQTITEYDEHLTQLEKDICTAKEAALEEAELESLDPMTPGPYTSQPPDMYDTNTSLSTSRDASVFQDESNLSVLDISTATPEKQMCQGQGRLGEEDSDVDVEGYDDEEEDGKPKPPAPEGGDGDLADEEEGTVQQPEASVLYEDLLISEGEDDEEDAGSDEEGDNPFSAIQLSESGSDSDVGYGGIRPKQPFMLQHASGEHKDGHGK

Compound `COc1cc(OC)c(Cl)c(-c2ccc3c(NC(=O)c4ccc(N5CCNC(C)(C)C5)cc4)n[nH]c3n2)c1Cl` [3D185] has an inhibition at 0.01 µM (Met(h); 10 nM) of 16%, an inhibition at 0.1 µM (Met(h); 100 nM) of 15% and an inhibition at 1 µM (Met(h); 1000 nM) of 55%. It also gave an inhibition at 0.01 µM (NEK1(h); 10 nM) of 5%, an inhibition at 0.1 µM (NEK1(h); 100 nM) of 3% and an inhibition at 1 µM (NEK1(h); 1000 nM) of 11%. It also gave an inhibition at 0.01 µM (TAF1L(h); 10 nM) of -4%, an inhibition at 0.1 µM (TAF1L(h); 100 nM) of -9% and an inhibition at 1 µM (TAF1L(h); 1000 nM) of -9%. The inhibition at 0.01 µM (p70S6K(h); 10 nM) was -4%, the inhibition at 0.1 µM (p70S6K(h); 100 nM) was -9% and the inhibition at 1 µM (p70S6K(h); 1000 nM) was -1%.

Source: PMC6704710, “Preclinical evaluation of 3D185, a novel potent inhibitor of FGFR1/2/3 and CSF-1R, in FGFR-dependent and macrophage-dominant cancer models” (Journal of Experimental & Clinical Cancer Research : CR, 2019)
